Data reported in patent US20250144187A1, “COMBINATION OF HYDROLASES AND ANTI-MICROORGANISM DRUGS AND USES THEREOF” (CENTRE FOR EYE AND VISION RESEARCH LIMITED, priority 2023, published 2025).

Key:
[1] = system: MRSA; assay: Antibiotics accumulation analysis (LC-MS/MS); type: cell-based, Staphylococcus aureus
Protocol: 11) Antibiotics accumulation analysis. The accumulation of antibiotics in MRSA was determined by LC-MS/MS analysis according to a previous report [Liu, Y et al., Adv. Sci. 7. 1902227 (2020); Ong, V et al., Drug Metab. Dispos, 4127 (2014); Richter, M. F et al., Nature 545, 299-304 (2017)]. Briefly, 1.0 ml of overnight culture of MRSA was diluted into […] of fresh LB medium and cultured at 37° C. with shaking at 250 rpm until when bacteria OD600 was about 0.4. Then, tedizolid phosphate (0.5 μg/ml) in combination with varying lysozyme (0, 0.25, 0.5 and 1.0 mg/ml) was added. After that, all samples were further cultured at 37° C. with shaking at 250 rpm for 0.5, 1.0, 2.0 or 4 hours, respectively. Then, all bacteria were pelleted by centrifuging at 13 000 g for 20 minutes. To lyse the bacteria, each pellet was dissolved in 400 μl of lysis buffer (150 mM NaCl, 1% Triton-X100, 1× proteinase inhibitor and 50 mM HEPES-Na, pH 8.0) and then subjected to sonication lysis, followed by three freeze-thaw cycles in liquid nitrogen. The lysates were pelleted at 13 000 g for 20 minutes and the supernatants were collected. All debris were re-suspended in 400 μl of methanol and pelleted as before, followed by 400 μl of acetonitrile treatment as before. These supernatants were combined with the previously collected supernatants, Residual debris was removed by centrifuging at 13 000 g for 20 minutes. Supernatants were analyzed by an Agilent 1260 Infinity HPLC system coupled to AD SCIEX QTRAP 6500 mass spectrometers (ABSciex, CA, USA). The liquid chromatography separation was performed on water HSS T3 column (2.1×100 mm, 3 μm) with mobile phase A (20 mM ammonium formate in water) and mobile phase B (methanol). The flow rate was […]. […] The quantification determination of antibiotic uptake was performed by multiple reaction monitoring (MRM) with negative electrospray ionization using the m/z 451 transition for tedizolid phosphate [Ong, V et al., Drug Metab. […]

[2] = system: MRSA ocular infection; assay: Ocular infection model, tedizolid phosphate/lysozyme; type: in vivo, C57BL/6 mice
From the text: 20) Ocular infection model. According to the reported method [Zhang, Z et al., Curt. Protoc, mouse Bot 7, 55-63 (2017)], 40 C57BL/6, male mice ([…]) were used to evaluate the combination effect in the ocular infection model. Specifically, all mice were divided into 5 groups (4 infected groups and 1 uninfected group, 8 mice per group). Among than, 32 mice in infected groups were infected by slowly inoculating about 2.5×10^7 CFUs of mid-log phase MRSA into each ocular surface. To collect these mid-tog phase ARA, a colony of MRSA cultured in LB-agar plate was firstly picked up and inoculated into fresh LB medium for overnight incubation at 37° C. Then, the overnight culture was diluted (1:300) into fresh LB medium for continuous culture until bacterial OD600 was about 0.6. […] Next, 2.5 μl of bacterial suspensions were slowly inoculated into each ocular surface of anesthetized C57/BL6 mouse on the side of surgical bed. […] After that, they were repeated from the air-anesthetizing room and monitored until they were fully awake, followed by retuned to their cages. […] Then, according to the standard protocol^28, 3 μl of tear fluid was gradient-diluted at 10-fold in 96-well plat to figure out the initial number of viable bacteria in tear fluid according to quantitative grown colony after overnight culture. […]

## Cn1nnc(-c2ccc(-c3ccc(N4C[C@H](COP(=O)(O)O)OC4=O)cc3F)cn2)n1 [tedizolid phosphate, Tedizolid Phosphate]
[1]; after 4 hours, lysozyme (≤0.25 mg/ml) used in combination
  increase in the level of intracellular tedizolid phosphate: 10 fold
[1]; combination therapy, 1 hour
  intracellular accumulation of tedizolid phosphate: ca. 100 μg/l
[1]; tedizolid phosphate alone, 1 hour
  tedizolid phosphate alone needed to achieve the same intracellular accumulation: ≥ 4.5 µg/mL
[2]; combination group compared with uninfected group
  expression level of SP-D in tear fluids: 1.5 fold
[2]; combination therapy (0.125 mg/ml tedizolid phosphate + 100 mg/ml lysozyme)
  bacterial load in both tear fluids and eyeball homogenates: 0.01 fold
